From patent publication US12441690B2, “Benzamide derivative compound, method for preparing same, and pharmaceutical composition for treating or preventing inflammatory disease containing same as active ingredient” (SEOUL NATIONAL UNIVERSITY R&DB FOUNDATION, priority 2017, dated 2025)
Each block holds one compound with its values, some of them ahead of it.

Columns and labels:
[1] = test system: Nc/Nga mice treated with DNCB; assay: Relief of atopic symptoms in Nc/Nga mice treated with DNCB; type: in vivo, mouse; settings: for weight of the spleen: DNCB-treated mice; for lymph node size / number of scratches for 20 minutes / symptoms of hypertrophy and edema of incised dorsal skin / weight of the lymph node: compared to mouse treated with DNCB alone; for skin thickness: incised dorsal skin, DNCB alone 1.19 mm, control 0.45 mm; for side effects: mouse treated with the compound alone, applied on dorsal skin; for incidence of inflammation on the dorsal skin: treated together with DNCB, compared to DNCB only, last day of experiment; for dermatitis score at week 5: treated with DNCB, total of 12 points
Experimental: In order to confirm the atopic dermatitis alleviation effect of the compounds of Examples 1 and 25 according to the present invention, atopic symptom relief experiments were performed on the mice with atopic symptoms.
DNCB (dinitrochlorobenzene) was applied on the back of Nc/Nga mouse to induce atopic dermatitis-like symptoms.
As a carrier for treating DNCB, acetone-olive oil in which acetone and olive oil were mixed (3:1) was used. Six groups of mice were prepared as follows: mice treated with the carrier alone; mice treated with Example 1 compound, mice treated with Example 25 compound, mice treated with DNCB alone, mice treated with DNCB and Example 1 compound, and mice treated with DNCB and Example 25 compound.
Particularly, 2 days before the start of the experiment, hair of the dorsal skin of the mouse was removed. After 2 days after removing the hair, 150 μl of 1% DNCB was dissolved in a carrier and applied on the dorsal skin of the mouse. Four days later, the same solution was applied on the dorsal skin of the mouse once again. Then, 150 μl of 0.2% DNCB solution was applied on the dorsal skin of the mouse once a week for 5 weeks. The experimental group mice were applied with the compounds of Example 1 and Example 25 daily from the 6th day of the experiment to the end of the experiment.
The degree of atopic symptoms in the experimental group and control group mice was evaluated and quantified once a week for a period of 5 weeks. Scores were given as follows for the four items of erythema/bleeding, edema, threshing/corrosion, scaling/dryness, respectively: 1 (none); 2 (moderate); and 3 (serious). Each experimental group and control group was scored based on a total of 12 points.
In order to confirm the effect of the compounds according to the present invention on relieving itching, the number of scratches for 20 minutes of each mouse of the experimental group and control group was measured, and the results are shown graphically in FIG. 5(a), (b).
After completing the experiment, the physical changes were observed by incising the dorsal skin of the experimental group and control group mice. As a result, hypertrophy and edema were clearly observed in the mouse treated with DNCB alone.
In addition, to confirm the alleviating effect of the compounds according to the present invention on skin hypertrophy, the incised skin thickness was measured, and the results are shown graphically in FIG. 5(b).
In order to confirm the effect of the compounds according to the present invention, the lymph node of each mouse of the experimental group and control group was separated and observed. The lymph node is an interaction site between the antigen and immune cells, and since the size of the lymph node increases during the development of inflammatory symptoms, it is possible to confirm the presence or absence of inflammatory disease depending on the size of the lymph node. The photographs of the separated lymph node of each mouse of the experimental group and control group are shown in FIG. 6(a), and the weight of the lymph node and the spleen of each mouse of the experimental group and control group are shown in FIG. 6(b) and FIG. 6(c).

[2] = test system: dorsal skin tissue of Nc/Nga mice treated with DNCB; assay: Observation of mouse dorsal skin tissue (H&E, toluidine blue, CD4+ cell staining); type: in vivo; settings: for expression of IFN-γ in CD4+ cells / expression of IL-4 of CD4+ cells / expression of IL-5 of CD4+ cells / expression of IL-17 of CD4+ cells: applied on the skin; for expression of IL-4 of CD4+ cells / expression of IL-5 of CD4+ cells / expression of IL-17 of CD4+ cells: compared to DNCB alone; for number of mast cells in skin tissue (toluidine blue): compared to mouse treated with DNCB alone; for skin structure of tissue sections (H&E): groups treated with the compound without DNCB; for epidermal hyperplasia and keratosis (H&E) / inflammatory cells in skin sections (H&E): treated with DNCB
Experimental: The dorsal skin samples were obtained from the experimental group and control group mice. The samples were fixed using 10% neutral buffered formalin and then embedded in paraffin. 4 μm thin tissue sections were prepared and stained with H & E (hematoxylin & eosin). […] In addition, the sections were stained with toluidine blue to investigate mast cell infiltration. Then, the stained tissue sections were photographed using NikonAX70 optical microscope (Tokyo, Japan).
In addition, the mouse tissue CD4+ cells were stained to confirm the expressions of IL-17, IFN-γ, IL-4 and IL-5.

[3] = molecular target: PDE4B GFP fusion protein (human PDE4B2A) (Homo sapiens (Human), UniProt Q07343); assay: PDE4B GFP fusion protein-inhibitor assay in HEK-293 cells; type: cell-based
Sequence of PDE4B GFP fusion protein (human PDE4B2A) (Q07343 other isoform, or with tags, fused parts or gaps): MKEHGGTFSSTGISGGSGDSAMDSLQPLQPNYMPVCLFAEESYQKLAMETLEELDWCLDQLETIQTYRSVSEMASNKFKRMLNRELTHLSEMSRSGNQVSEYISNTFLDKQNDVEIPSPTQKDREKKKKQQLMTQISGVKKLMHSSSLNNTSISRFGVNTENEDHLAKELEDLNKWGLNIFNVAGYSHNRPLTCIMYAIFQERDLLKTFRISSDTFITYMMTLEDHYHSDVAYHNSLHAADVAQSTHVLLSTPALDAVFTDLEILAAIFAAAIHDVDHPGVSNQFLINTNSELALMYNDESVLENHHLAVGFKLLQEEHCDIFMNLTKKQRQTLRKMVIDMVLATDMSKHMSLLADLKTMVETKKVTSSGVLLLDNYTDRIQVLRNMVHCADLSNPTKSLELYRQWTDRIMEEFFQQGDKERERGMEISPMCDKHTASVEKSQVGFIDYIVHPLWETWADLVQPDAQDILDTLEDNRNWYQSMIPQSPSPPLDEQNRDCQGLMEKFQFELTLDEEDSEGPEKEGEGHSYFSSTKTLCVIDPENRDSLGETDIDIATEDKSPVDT
Experimental: To evaluate the intracellular enzyme inhibitory activity of the compounds of Examples 1 and 25, PDE4B GFP fusion protein-inhibitor assay was performed using GFP (green fluorescent protein).
The DNA complementary to human PDE4B2A was amplified by PCR using the DNA genome extracted from the human blood sample (QIAamp DNA Blood Mini Kit, Qiagen, Valencia, CA, U.S.A.).
For DNA amplification, 5′-[…]-3′ was used as a forward primer, and 5′-[…]-3′ was used as a reverse primer.
The amplified PDE4B2A cDNA was cloned into pAcGFP1-N1, the mammalian expression mediator, between the EcoR1 and BamH1 restriction enzyme sites, which was transfected into E. coli DH5α cells using chemical transformation reagents (Invitrogen, Carlsbad, CA, U.S.A.).
Plasmids were isolated from the colonies with kanamycin using Plasmid Midi Kit (Qiagen, Valencia, CA, U.S.A.). Then, the plasmid cloned with PDE4B2A gene was transfected into HEK-293 cells (Korean Cell Line Bank, Seoul, Korea) using lipofectamine 3000 (Invitrogen).
The transfected cells were cultured in DMEM at 37° C. for 48 hours in a CO2 incubator. […] Upon completion of the culture, the fluorescence emission of HEK-293 cells was measured by confocal microscopy to perform quantitative analysis, and the results are shown in FIGS. 1 and 2.
In addition, the ratio of the surface cover area of GFP to the total cell surface area was measured using MetaMorph software, and the results are shown in FIG. 2.

[4] = test system: TNF-α secretion in human PBMC cells; assay: Inhibition of TNF-α synthesis in LPS-stimulated human PBMC cells; type: cell-based; settings: human PBMC cells stimulated using bacterial LPS
Experimental: In addition, to evaluate the inhibitory effect of the compounds of Example 1 and Example 25 on the synthesis of TNF-α, in vitro assay was performed. Particularly, after culturing human PBMC cells, the secretion of TNF-α was stimulated using bacterial LPS, and the expression level of TNF-α was measured.

[5] = test system: IL-4, IL-5, IFN-γ, IL-17 and IgE in mouse skin tissues; assay: Sandwich ELISA with mouse skin tissues; type: in vivo; settings: for expression of IL-4 (ELISA) / expression of IL-5 (ELISA) / expression of IL-17 (ELISA): DNCB; for expression of IgE (ELISA): treated with DNCB
Experimental: To confirm the effect of the compounds according to the present invention on the synthesis of DNCB-induced IgE and inflammatory mediators, ELISA (Enzyme-Linked ImmunoSorbent Assay) was performed with the control group and the experimental group treated with the compounds of Example 1 and Example 25.
FIG. 11(a)-FIG. 11(e) are graphs showing the expression levels of IL-4, IL-5, IFN-γ, IL-17 and IgE, respectively, shown when performing sandwich ELISA (Enzyme-Linked ImmunoSorbent Assay) with the mouse skin tissues.

PDE4B enzyme = PDE4B enzyme (Homo sapiens (Human), UniProt Q07343); assay: PDE4B inhibitory activity, LANCE Ultra cAMP assay; type: biochemical; settings: 50% inhibition from cAMP to 5′AMP
Sequence of PDE4B enzyme (Q07343 whole entry): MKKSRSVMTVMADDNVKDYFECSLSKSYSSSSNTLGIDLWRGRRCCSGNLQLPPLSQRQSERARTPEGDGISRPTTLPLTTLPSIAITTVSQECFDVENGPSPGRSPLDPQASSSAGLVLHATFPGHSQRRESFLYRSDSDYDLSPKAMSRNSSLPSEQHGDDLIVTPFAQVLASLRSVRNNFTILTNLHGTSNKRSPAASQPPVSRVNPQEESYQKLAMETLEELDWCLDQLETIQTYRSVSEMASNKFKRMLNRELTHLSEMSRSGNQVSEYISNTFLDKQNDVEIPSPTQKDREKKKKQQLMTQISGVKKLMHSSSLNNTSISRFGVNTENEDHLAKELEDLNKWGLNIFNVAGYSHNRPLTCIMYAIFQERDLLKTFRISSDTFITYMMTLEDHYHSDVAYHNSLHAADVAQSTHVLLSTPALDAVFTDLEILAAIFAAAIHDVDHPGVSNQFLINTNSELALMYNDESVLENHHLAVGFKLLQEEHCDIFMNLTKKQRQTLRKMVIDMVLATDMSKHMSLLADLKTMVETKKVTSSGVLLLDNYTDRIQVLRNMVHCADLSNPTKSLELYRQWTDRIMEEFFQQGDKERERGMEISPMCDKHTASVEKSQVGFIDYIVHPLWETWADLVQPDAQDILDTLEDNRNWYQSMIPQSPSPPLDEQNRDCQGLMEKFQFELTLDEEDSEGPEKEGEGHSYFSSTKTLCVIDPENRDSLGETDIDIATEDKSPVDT
Experimental: In order to evaluate the PDE4B inhibitory activity of the compounds according to the present invention, the following experiment was performed using LANCE Ultra cAMP assay kit (Perkin Elmer, U.S.A).
Particularly, 5 μl of the 3 nM cAMP dissolved reaction buffer was added to each reaction well (LANCE Ultra cAMP assay kit). Then, each example compound dilution solution (2.5 μl) and PDE4B enzyme (0.1 ng/well, BPS Biosciences, San Diego, U.S.A) were added to the well, followed by incubation for 1 hour at 37° C. Next, 5 μl of ULight-anti-cAMP detection reactant supplemented with 5 μl of Eu-cAMP tracer and 1 mM IBMX (LANCE Ultra cAMP assay kit) was added thereto, followed by incubation for 1 hour at 37° C.

[6] = 24 hours, compared to control group not-treated with any inhibitor
[7] = at the concentrations of 100 nM and 500 nM

skin structure of tissue sections (H&E) [2]: normal skin structure
fluorescence intensity of PDE4B GFP fusion protein [3, 6]: relatively weak
fluorescence intensity of PDE4B GFP fusion protein [3, 7]: significantly reduced
IC50 (PDE4B enzyme): 15 nM
Compound: COc1ccc(-c2nc(C(F)(F)F)ncc2C(=O)Nc2ccncc2)cc1OC [Example 25, 4-(3,4-dimethoxyphenyl)-N-(pyridine-4-yl)-2-(trifluoromethyl)pyrimidine-5-carboxamide]
weight of the spleen [1]: significantly reduced
lymph node size [1]: significantly reduced
number of scratches for 20 minutes [1]: significantly less
symptoms of hypertrophy and edema of incised dorsal skin [1]: no symptoms of hypertrophy and edema
weight of the lymph node [1]: significantly reduced
skin thickness [1]: 0.71 mm
side effects [1]: no side effects were observed
incidence of inflammation on the dorsal skin [1]: significantly reduced
dermatitis score at week 5 [1]: less than 3
expression of IFN-γ in CD4+ cells [2]: activated
expression of IL-4 of CD4+ cells [2]: more suppressed
expression of IL-5 of CD4+ cells [2]: more suppressed
expression of IL-17 of CD4+ cells [2]: more suppressed
number of mast cells in skin tissue (toluidine blue) [2]: significantly reduced
epidermal hyperplasia and keratosis (H&E) [2]: significantly reduced
inflammatory cells in skin sections (H&E) [2]: almost no inflammatory cells
synthesis of TNF-α [4]: effectively inhibited
expression of IFN-γ (ELISA) [5]: high
expression of IL-4 (ELISA) [5]: significantly suppressed
expression of IL-5 (ELISA) [5]: significantly suppressed
expression of IL-17 (ELISA) [5]: significantly suppressed
expression of IgE (ELISA) [5]: significantly reduced

skin structure of tissue sections (H&E) [2]: normal skin structure
fluorescence intensity of PDE4B GFP fusion protein [3, 6]: relatively weak
fluorescence intensity of PDE4B GFP fusion protein [3, 7]: significantly reduced
IC50 (PDE4B enzyme): 31 nM
Compound: COc1ccc(NC(=O)c2cnc(SC)nc2N2CCOCC2)cc1OC [Example 1, N-(3,4-dimethoxyphenyl)-2-(methylthio)-4-morpholinopyrimidine-5-carboxamide]
weight of the spleen [1]: significantly reduced
lymph node size [1]: significantly reduced
number of scratches for 20 minutes [1]: significantly less
symptoms of hypertrophy and edema of incised dorsal skin [1]: no symptoms of hypertrophy and edema
weight of the lymph node [1]: significantly reduced
skin thickness [1]: 0.83 mm
side effects [1]: no side effects were observed
incidence of inflammation on the dorsal skin [1]: significantly reduced
dermatitis score at week 5 [1]: less than 3
expression of IFN-γ in CD4+ cells [2]: activated
expression of IL-4 of CD4+ cells [2]: more suppressed
expression of IL-5 of CD4+ cells [2]: more suppressed
expression of IL-17 of CD4+ cells [2]: more suppressed
number of mast cells in skin tissue (toluidine blue) [2]: significantly reduced
epidermal hyperplasia and keratosis (H&E) [2]: significantly reduced
inflammatory cells in skin sections (H&E) [2]: almost no inflammatory cells
synthesis of TNF-α [4]: effectively inhibited
expression of IFN-γ (ELISA) [5]: high
expression of IL-4 (ELISA) [5]: significantly suppressed
expression of IL-5 (ELISA) [5]: significantly suppressed
expression of IL-17 (ELISA) [5]: significantly suppressed
expression of IgE (ELISA) [5]: significantly reduced
